Columns and labels:
natural catalase = assay: Peroxide concentration in 3% recovered paper pulp with catalase-containing process water; type: biochemical, bacteria; conditions: for Measured H2O2: 3% pulp, dose SPC 6.7 kg/t or H2O2 2.0 kg/t, + 7 kg/t H2O2 at 0 min
Experimental: The effect of SPC product A was studied with a system consisting of recycled fiber pulp and process water with natural catalase. Pulp for the experiment was produced at a recycled fiber pilot plant pulper. Old magazines and old newspapers (OMG/ONP 50/50) were shredded and repulped using process water from a European recycled fiber plant. in the pilot pulper at 19% consistency for 20 minutes with alkaline soap chemistry without peroxide (NaOH 10 kg/t (100%), water glass 15 kg/t (product), soap 5 kg/t). The pulp was stored in freezer until used. Process water from the recycled fiber pilot plant was used in the experiments for diluting the pulp into 3%.
6.7 kg/t of SPC A was added to the pulp and stirred for 5 minutes. After that, 7 kg/t of 100% peroxide was added (at 0 min in FIG. 2 and Table 3) and the concentration of peroxide in the pulp filtrate was measured against time. The SPC addition brought into the system slightly below 2.0 kg peroxide /ton. Therefore, 2.0 kg of peroxide/t representing a reference sample was added to the pulp and stirred for 5 minutes. Again, after that 7 kg/t of 100% peroxide was added (at 0 min in FIG. 2 and Table 3) and the concentration of peroxide was determined by titration against time from the pulp filtrate.

[1] = test system: commercial catalase enzyme; assay: Peroxide decomposition in pure water-peroxide-catalase system (titration against time); type: biochemical; conditions: 100 mg/L SPC
Experimental: (§1) Sodium percarbonate (SPC product E) was tested in a pure distilled water system containing peroxide (210 mg/L), commercial catalase enzyme (1 μL/L) and NaOH to adjust the pH to 9.7 corresponding to the alkaline conditions in a recycled fiber plant. The size of SPC particles comprising NaCO3 coated with Na2SO4 was between 6 and 900 micrometers with maximum 1% >1.6 mm and maximum 2% <0.15 mm. Peroxide decomposition was measured by titration against time. Higher residual peroxide level was obtained with SPC than without any catalase control additive with water-catalase-peroxide system at pH 9.7. Catalase destroyed the 210 mg/I of peroxide very rapidly (FIG. 1, black square). Addition of 100 mg/L of SPC was able to retain the residual peroxide concentration at markedly higher level (triangle). After some initial peroxide degradation, the peroxide level stabilized to ˜80 mg/L. It is known that SPC brings peroxide in the system; this was measured to be 30 mg/L (triangle dotted line). […] Probably catalase enzyme managed to degrade a part of the added peroxide before it was inactivated.

[2] = Effect of SPC on the peroxide titration (SPC without catalase and without added H2O2); type: physicochemical; conditions: 100 mg/L SPC
Experimental: as §1

SMILES | Measured H2O2 (natural catalase; 0 min) [kg/t] | Measured H2O2 (natural catalase; 10 min) [kg/t] | Measured H2O2 (natural catalase; 30 min) [kg/t] | Measured H2O2 (natural catalase; 60 min) [kg/t] | Measured benefit: peroxide higher than what only came from SPC ([1]; water-catalase-peroxide system) [mg/L] | Peroxide brought into the system by SPC [2] [mg/L] | Stabilized peroxide level after initial degradation ([1]; 210 mg/L peroxide, catalase 1 μL/L, pH 9.7) [mg/L] | Peroxide decomposition compared with an equal amount of added peroxide (natural catalase; 3% pulp made of recovered paper)
OO [H2O2, hydrogen peroxide, reference compound] | 8.7 | 6.4 | 5.8 | 5.2 |  |  |  | 
O=C([O-])[O-].O=C([O-])[O-].OO.OO.OO.[Na+].[Na+].[Na+].[Na+] [SPC product E, sodium percarbonate] |  |  |  |  | 50 |  |  | 
O=C([O-])[O-].O=C([O-])[O-].OO.OO.OO.[Na+].[Na+].[Na+].[Na+] [SPC, sodium percarbonate] | 8.7 | 7.9 | 7.4 | 7.0 |  | 30 | ~80 | Less peroxide decomposed

From US20130164814A1, “CONTROL OF ENZYMES IN THE PRODUCTION OF PULP” (KEMIRA OYJ, priority 2010, published 2013)
